Source: US20100099698A1, “Compositions for Improving Skin Conditions Comprising Matrine or Its Oxidized Derivatives” (Biospectrum Inc., priority 2007, published 2010)

Experiments:
tyrosinase = target: T1, tyrosinase (Mus musculus, UniProt P11344); test: Inhibition of intracellular tyrosinase activity in melanoma cells; format: cell-based, Murine; settings: B16-F1, read-out: Inhibitory rate of intracellular tyrosinase activity (%)
T1 construct: This cell pellets were lysated using lysis buffer, centrifuged at 12,000 rpm for 10 min and the supernatant was collected; endogenous in cells; host or cells: B16 F1 mouse melanoma cells (Korean Cell Line Bank)
T1 sequence (P11344 19-533): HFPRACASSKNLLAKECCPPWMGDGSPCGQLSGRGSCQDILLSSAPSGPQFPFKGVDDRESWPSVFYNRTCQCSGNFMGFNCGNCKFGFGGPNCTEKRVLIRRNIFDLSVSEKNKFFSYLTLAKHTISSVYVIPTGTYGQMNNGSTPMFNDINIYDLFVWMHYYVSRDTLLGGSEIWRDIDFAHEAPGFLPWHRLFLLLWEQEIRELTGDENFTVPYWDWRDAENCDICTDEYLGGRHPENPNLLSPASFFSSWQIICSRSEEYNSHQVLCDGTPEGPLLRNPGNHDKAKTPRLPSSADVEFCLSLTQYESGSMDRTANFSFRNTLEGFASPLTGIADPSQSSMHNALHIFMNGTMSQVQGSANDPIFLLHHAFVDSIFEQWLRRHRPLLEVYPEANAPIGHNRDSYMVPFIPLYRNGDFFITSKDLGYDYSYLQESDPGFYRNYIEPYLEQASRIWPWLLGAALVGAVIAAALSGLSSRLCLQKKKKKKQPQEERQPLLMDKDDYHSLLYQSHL
Description: After measuring the inhibition of melanin production by matrine and oxymatrine using B16 mouse melanoma cells (Korean Cell Line Bank), the measurement was compared with that for the inhibition of intracellular tyrosinase activities by arbutin, known as a melanin production inhibitor.
Murine melanoma (B-16 F1) cells were seeded into each well of a 6-well plate (1×10^5 cells/well) in DMEM containing 10% FBS (fetal bovine serum) and the cells were cultured to about more than 80% adherence by incubating in a CO2 incubator under conditions of 37° C. and 5.0% CO2. After cultivation, the medium was removed and samples were replaced in medium diluted at suitable concentration, followed by incubating for 3 days under conditions of 37° C. and 5.0% CO2. […] The cells removing medium were washed with PBS (phosphate buffer saline) and treated with trypsin to collect cells. Number of the collected cells was calculated using hematocytometer, centrifuged at 5,000 to 10,000 rpm for 10 min and the supernatant was eliminated, thereby obtaining pellets. This cell pellets were lysated using lysis buffer, centrifuged at 12,000 rpm for 10 min and the supernatant was collected. Then, the cell solution was measured for absorbance at 492 nm using microplate reader and the activity of tyrosinase per cell constant number was estimated.

Human fibroblasts = test: Cytotoxicity to fibroblasts (MIT reagent, absorbance 540 nm); format: cell-based; settings: 1 μM, 10 μM and 50 μM; compared to RA (retinoic acid); FIG. 1
Description: (§1) Human fibroblasts (commercially available from pacific) were seeded into a 6-well plate (2×10^5 cells/well) and the well plate was incubated in a 5% CO2 incubator for 24 hr at 37° C. After 24 hr, the medium in each well was removed and samples were treated with various concentrations, followed by incubating again for 24 hr. Following incubation, the cell medium was collected and was used as samples. To measure cytotoxicity of samples to fibroblasts, MIT reagent (1 mg/ml) was added to each well in 1/10 fold volume of the remaining medium, incubated for 3 hr and the medium was eliminated. The medium was dissolved in DMSO and its absorbance at 540 nm was measured.

pigmentation of skin = test: Skin whitening of UV-induced pigmentation, chromameter L* value; format: in vivo, brown guinea pigs; settings: for Whitening effects (ΔL): topical once or twice a day for 50 days, UV-pigmented abdominal skin
Description: A whitening effect of matrine and oxymatrine was measured using brown guinea pigs (Charles River Laboratories, Inc.), known to increase its pigmentation upon exposure to ultraviolet light, like in humans. To cause pigmentation in the brown guinea pig by ultraviolet (UV), aluminum foil with square windows of 3×3 cm^2 was adhered to hair-removed abdominal skin of brown guinea pig, and then UV light was irradiated thereon with a SE lamp (wavelength 290-320 nm, Toshiba) (total irradiation energy=1350 mJ/cm^2). After UV irradiation, the aluminum foil was removed and samples (matrine, oxymatrine or albutin) were applied as the following method. […] From the maximum, samples were applied. Applications performed once or twice a day for 50 days. […] The control with only the solvent was applied to another site. Occurrence of cumulative irritation also was examined. The degree of pigmentation of skin was determined using a chromameter (CR2002, MINOLTA, JP) to estimate the effects of applied samples. L*a*b* colorimetric system was used to classify color and L* value was used as standard in the present invention. The L* value was corrected using white board standard and was measured more than five times at one site, repeatedly. Pigmentation was evenly distributed. Skin color differences (ΔL*) between application initial point and application terminal point were obtained and then using these values, their effects of the applied samples were estimated. ΔL*=L* value at […] after application-L* value at application initial day. Equation 1 ΔL* values were obtained both at sample application site and control application site and compared, whereby the effects of the whitening substances can be estimated.

[1] = tested on: collagen (Type 1 collagen) biosynthesis; test: Collagen synthesis: procollagen type I C-peptide (PICP) EIA in medium of treated fibroblasts; format: cell-based; settings: 24 hr, human fibroblasts
Description: as §1
The extent of collagen synthesis was determined by measuring the amount of procollagen type I C-peptide (PICP) in cell medium using Procollagen Type I C-peptide EIA kit (MK101, Takara, Kyoto, Japan). The method was performed in accordance with manufacturer's protocol.

[2] = Anti-oxidation: removal of superoxide anion generated by xanthine oxidase (SOD Assay Kit-WST); format: biochemical
Description: This experiment evaluates anti-oxidation activity of sample by observing removal of superoxide anion generated by xanthine oxidase. The experiment was performed using the kit (SOD Assay Kit-WST) purchased from Dojindo (JP) in accordance with manufacture's protocol.

B16 mouse melanoma cells = test: Cytotoxicity at the test concentrations in B16 melanoma cells; format: cell-based; settings: 10 μM, 100 μM and 500 μM

Compound	inhibition at 10 µM (tyrosinase)	inhibition at 100 µM (tyrosinase)	inhibition at 500 µM (tyrosinase)	cytotoxicity against human fibroblasts compared to RA (Human fibroblasts)	Whitening effects (ΔL) (pigmentation of skin; 0.2 %)	Whitening effects (ΔL) (pigmentation of skin; 1.0 %)	Occurrence of cumulative irritation (pigmentation of skin; brown guinea pig skin, application for 50 days)	Increasing rate of collagen synthesis (%) ([1]; 1 μM)	Increasing rate of collagen synthesis (%) ([1]; 10 μM)	Increasing rate of collagen synthesis (%) ([1]; 50 μM)	Removal rate of superoxide anion (%) ([2]; 10 μM)	Removal rate of superoxide anion (%) ([2]; 100 μM)	Removal rate of superoxide anion (%) ([2]; 500 μM)	cytotoxicity (B16 mouse melanoma cells)
O=C1CCC[C@@H]2[C@H]3CCCN4CCC[C@@H](CN12)[C@@H]34 [Matrine, matrine]	13%	32%	37%	lower cytotoxicity	0.38	0.53	not observing the occurrence of cumulative irritation	20%	23%	40%	6%	12%	24%	did not show cytotoxicity
O=C1CCC[C@@H]2[C@H]3CCC[N+]4([O-])CCC[C@@H](CN12)[C@@H]34 (stereo partly shown) [Oxymatrine, oxymatrine]	11%	29%	34%		0.24	0.50		11%	15%	22%	4%	17%	32%	
